Data as given in patent publication US4007184A, “Substituted alkyl esters of quinoxaline-di-N-oxide-2-carboxylic acid” (Pfizer Inc., priority 1975, dated 1977).
≈ marks a conversion by molar mass, not a printed value. Structures can show the parent of a compound that is named as a salt.

Assays:
Escherechia coli [1] = assay: in vivo antibacterial activity against acute infections in mice, oral; details: for responders at 200 mg/kg / responders at 50 mg/kg: Escherichia coli, in Mus musculus, po, 96 h; for responders at 200 mg/kg: read-out: percent animals which survived, E. coli, *200 mg./kg., mice, oral, 200 mg./kg. (footnote *); for responders at 50 mg/kg: read-out: percent animals which survived, E. coli, **50 mg./kg., mice, oral, 50 mg./kg.; for percent animals which survived, E. coli 25 / percent animals which survived, E. coli 100: mice, oral; for percent animals which survived, E. coli 25: 25 mg./kg.; for percent animals which survived, E. coli 100: 100 mg./kg.
Procedure: (§1) The in vivo efficacy of the compounds of the instant invention is determined by the antibacterial activity against acute infections in mice. The acute experimental infections are produced by the intraperitoneal inoculation of standardized culture suspended in either 5% hog gastric mucin or broth.
(§2) Stock cultures of test organisms are normally maintained on slants or in liquid medium. When not routinely used they are maintained at refrigerator temperature or in a lyophilized state. When it becomes to use a culture in animal protection tests the culture is suspended in a volume of saline or broth, and the density of the suspension is measured by a photo-electric colorimeter. From this stock, ten-fold dilutions are prepared. Each dilution is inoculated into a series of mice in order to determine the LD100, the LD100 being the lowest concentration of organisms required to produce 100 percent deaths. […] This means that we are using about 10 LD100 or 10 times the minimum dose required to kill mice. Such a test would also include the use of control animals which receive an inoculum of 10^^-4, 10^^-5 and possibly 10^^-6. These dilutions are included as a check on possible variation in virulence which can occur. Having previously determined, through the virulence titration, that 10^^-4 was the maximum dilution that will kill we naturally expect these animals to die, usually within 24 hours.
(§3) Each organism has its own standardized inoculum level. Some, such as Staphylococcus, may be used at 10^^-1, while others like Streptococcus require weekly animal passage in order to maintain virulence.
(§4) When evaluating an antibiotic for its effectiveness after a single dose, the dose is usually administered 0.5 hour after inoculating the mice with the lethal concentration of organisms. In this type of treatment schedule surviving mice are usually held for 4 days after the treatment and the percent alive is calculated.

Staphylococcus aureus = assay: in vitro activity (MIC), two-fold serial dilution technique; assay type: cell-based; details: 37° C., approximately 24 hours, method gives concentrations as mcg. of compound per ml., read-out: MIC (Minimal Inhibitory Concentration) S. aureus
Escherechia coli [2] = assay: as above; assay type: cell-based; details: Escherichia coli, 37° C., approximately 24 hours, method gives concentrations as mcg. of compound per ml., read-out: MIC (Minimal Inhibitory Concentration) E. coli
Streptococcus pyogenes = assay: in vivo antibacterial activity against acute infections in mice, oral; details: for percent animals which survived, S. pyogenes 50: 50 mg./kg.; for percent animals which survived, S. pyogenes 200: 200 mg./kg.
Procedure: as §1, §2, §3, §4

[3] = tested on: Salmonella cholerasuis var. kunzendorf; assay: protection against systemic challenge infection in swine; assay type: in vivo; details: intramuscular, day 10, placebo 83
Procedure: Young, 6-8 week old pigs are conditioned for 14 days in isolation rooms and maintained during the entire study on a basal ration consisting of ground yellow corn (78.4%), soybean meal (15%), alfalfa meal (2%), meat bone scraps (2.5%), limestone (0.4%), dicalcium phosphate (0.65%), iodized salt (0.5%), Vitamin pre-mix PPM-5 (0.5%), quadruple delamix (0.05%) and zinc carbonate (7.8 g./100 lbs. mix). All the pigs, which are divided into groups of six, are inoculated on day 0 with 4 ml. (approximately 2.0 × 10^8 organisms) of the stock inoculating suspension. Treatment with the quinoxaline-di-N-oxides of the present invention is carried out on day 0 and day 1 by intramuscular injection at 12 hour intervals at doses of 2.5 and 5 mg./kg. On day 10 the percent mortality in each group is calculated.

[4] = growth promotion in swine; assay type: in vivo; details: 50 g./ton of feed, 28 days; for Weight Gain Index: control = 100
Procedure: In practice, growth promotion is determined in swine, for instance, by the method wherein young pigs from 5-6 weeks of age and averaging 21.5 lbs. initial body weight are maintained on an ad libitum consumption of water and feed formulation consisting of ground yellow corn (58.1%), soybean meal (19.6%), alfalfa meal (2.0%), dried skim milk (5.0%), dried whey (10.0%), stabilized animal fat (2.5%), limestone (0.6%), dicalcium phosphate (1.1%), iodized salt (0.5%), vitamin premix PPM-5 (0.5%), quadruple delamix (0.05%), and zinc carbonate (156 g./2000 lbs. mix). The pigs are divided into groups of 32 pigs each and are held for a pre-experimental period of 3 days prior to starting the experiment. The quinoxaline-di-N-oxides of the present invention are added to the feed at a ratio of 50 g. of compound per ton of feed. After 28 days the efficacy of said added compounds on growth promotion is measured by a comparison of the growth in terms of weight gain of the treated animals with the untreated control group, which is arbitrarily assigned a weight gain Index of 100. For example, if a compound effects a growth 23% greater than the control group (with an Index of 100) it would be assigned a value of 123, etc.
Employing the previously described procedure for determining growth promotion in animals, the following quinoxaline-di-N-oxides were tested at 50 g./ton of feed in swine for a period of 28 days and provided the following results: […]

Compound	responders at 200 mg/kg (Escherechia coli [1]) [%]	responders at 50 mg/kg (Escherechia coli [1]) [%]	MIC (Staphylococcus aureus) [µg/mL]	MIC (Escherechia coli [2]) [µg/mL]	also measured
Cc1c(C(=O)OCCOC(=O)CCCC(=O)O)[n+]([O-])c2ccccc2[n+]1[O-]	90	50	–	–	–
CCCCCCCCCC(=O)OCCOC(=O)c1c(C)[n+]([O-])c2ccccc2[n+]1[O-]	100	70	–	–	–
CC1(C)S[C@@H]2[C@H](NC(=O)Cc3ccccc3)C(=O)N2[C@H]1C(=O)O [Benzylpenicillin (K Salt), Benzylpenicillin, reference compound]	–	–	0.156	> 100	–
CCCCC(=O)OCCOC(=O)c1c(C)[n+]([O-])c2ccccc2[n+]1[O-]	100	60	–	–	–
Cc1c(C(=O)OCCCN(C)C)[n+]([O-])c2ccccc2[n+]1[O-].Cl [H (CH2)3 N(CH3)2.HCl, 3-Methyl-2-quinoxalinecarboxylic acid, 3-(dimethylamino)propyl ester, 1,4-dioxide hydrochloride]	–	–	–	–	percent animals which survived, E. coli 25 (Escherechia coli [1]): 40%; percent animals which survived, E. coli 100 (Escherechia coli [1]): 80%; percent animals which survived, S. pyogenes 50 (Streptococcus pyogenes): 20%; percent animals which survived, S. pyogenes 200 (Streptococcus pyogenes): 100%
Cc1c(C(=O)OCCOC(=O)CCl)[n+]([O-])c2ccccc2[n+]1[O-]	100	100	–	–	–
CCCCCC(=O)OCCOC(=O)c1c(C)[n+]([O-])c2ccccc2[n+]1[O-]	90	0	–	–	–
CCN(CC)CC(C)OC(=O)c1c(C)[n+]([O-])c2ccccc2[n+]1[O-] (centres unmarked) [H CH(CH3)CH2 N(C2 H5)2.HCl]	–	–	–	–	percent animals which survived, E. coli 25 (Escherechia coli [1]): 0%; percent animals which survived, E. coli 100 (Escherechia coli [1]): 60%; percent animals which survived, S. pyogenes 50 (Streptococcus pyogenes): 20%; percent animals which survived, S. pyogenes 200 (Streptococcus pyogenes): 80%
Cc1c(C(=O)OCCOC(=O)CCC(=O)O)[n+]([O-])c2ccccc2[n+]1[O-] [drawing 100]	100	80	–	–	–
Cc1c(C(=O)OCCO)[n+]([O-])c2ccccc2[n+]1[O-] [H (CH2)2 OH, 3-Methyl-2-quinoxalinecarboxylic acid, 2-hydroxyethyl ester, 1,4-dioxide]	–	–	–	–	percent animals which survived, E. coli 25 (Escherechia coli [1]): 80%; percent animals which survived, E. coli 100 (Escherechia coli [1]): 100%; percent animals which survived, S. pyogenes 50 (Streptococcus pyogenes): 60%; percent animals which survived, S. pyogenes 200 (Streptococcus pyogenes): 100%
Cc1c(C(=O)OC(C)CN(C)C)[n+]([O-])c2ccccc2[n+]1[O-].Cl (centres unmarked) [H CH(CH3)CH2 N(CH3)2.HCl, 3-Methyl-2-quinoxalinecarboxylic acid, 1-methyl-2-(dimethyl-amino)ethyl ester, 1,4-dioxide hydrochloride]	–	–	200	100	–
CC(=O)OCCOC(=O)c1c(C)[n+]([O-])c2ccccc2[n+]1[O-] [3-Methyl-2-quinoxalinecarboxylic acid, 2-(acetyloxy)ethyl ester, 1,4-dioxide]	–	–	–	–	% Mortality ([3]; 2.5 mg./kg. × 4 at 12 hour intervals): 67%; % Mortality ([3]; 5.0 mg./kg. × 4 at 12 hour intervals): 17%
CCC(=O)OCCOC(=O)c1c(C)[n+]([O-])c2ccccc2[n+]1[O-]	90	80	–	–	–
Cc1c(C(=O)OCCOC(=O)C[N+](C)(C)C)[n+]([O-])c2ccccc2[n+]1[O-]	90	40	–	–	–
CCCCCCCC(=O)OCCOC(=O)c1c(C)[n+]([O-])c2ccccc2[n+]1[O-]	100	50	–	–	–
CCNC(=O)OCCOC(=O)c1c(C)[n+]([O-])c2ccccc2[n+]1[O-] [drawing 89]	30	40	–	–	–
CCOC(=O)OCCOC(=O)c1c(C)[n+]([O-])c2ccccc2[n+]1[O-]	–	–	–	–	percent animals which survived, E. coli 100 (Escherechia coli [1]): 30%
CC(=O)OCCOC(=O)c1c(C)[n+]([O-])c2ccccc2[n+]1[O-] [drawing 85]	–	–	–	–	percent animals which survived, E. coli 25 (Escherechia coli [1]): 80%; percent animals which survived, E. coli 100 (Escherechia coli [1]): 100%; percent animals which survived, S. pyogenes 50 (Streptococcus pyogenes): 80%; percent animals which survived, S. pyogenes 200 (Streptococcus pyogenes): 80%
Cc1c(C(=O)OCCOC(=O)OCC(C)C)[n+]([O-])c2ccccc2[n+]1[O-]	90	–	–	–	–
Cc1c(C(=O)OCCN)[n+]([O-])c2ccccc2[n+]1[O-] [H (CH2)2 NH2.HCl, 3-Methyl-2-quinoxalinacarboxylic acid, 2-aminoethyl ester, 1,4-dioxide hydrochloride]	–	–	–	–	percent animals which survived, E. coli 25 (Escherechia coli [1]): 100%; % Growth Over Control [4]: 39%; Weight Gain Index [4]: 139; percent animals which survived, S. pyogenes 50 (Streptococcus pyogenes): 30%; percent animals which survived, S. pyogenes 200 (Streptococcus pyogenes): 90%
CCN(CC)CCOC(=O)c1c(C)[n+]([O-])c2ccccc2[n+]1[O-].Cl [H (CH2)2 N(C2 H5)2.HCl, 3-Methyl-2-quinoxalinecarboxylic acid, 2-(diethylamino)ethyl ester, 1,4-dioxide hydrochloride]	–	–	100	12.5	–
CCN(C)CCOC(=O)c1c(C)[n+]([O-])c2ccccc2[n+]1[O-].Cl [H (CH2)2 N(CH3)C2 H5.HCl, 3-Methyl-2-quinoxalinecarboxylic acid, 2-(methylethylamino)-ethyl ester, 1,4-dioxide hydrochloride]	–	–	100	12.5	percent animals which survived, E. coli 25 (Escherechia coli [1]): 0%; percent animals which survived, E. coli 100 (Escherechia coli [1]): 80%; percent animals which survived, S. pyogenes 50 (Streptococcus pyogenes): 60%; percent animals which survived, S. pyogenes 200 (Streptococcus pyogenes): 100%
CC(=O)OCCOC(=O)c1c(C)[n+]([O-])c2ccccc2[n+]1[O-] [drawing 103]	–	–	–	–	% Growth Over Control [4]: 53%; Weight Gain Index [4]: 153
CCCC(=O)OCCOC(=O)c1c(C)[n+]([O-])c2ccccc2[n+]1[O-]	90	80	–	–	–
Cc1c(C(=O)OCCN(C)C)[n+]([O-])c2ccccc2[n+]1[O-].Cl [H (CH2)2 N(CH3)2.HCl, 3-Methyl-2-quinoxalinecarboxylic acid, 2-(dimethylamino)ethyl ester, 1,4-dioxide hydrochloride]	–	–	100	6.25	percent animals which survived, E. coli 25 (Escherechia coli [1]): 40%; percent animals which survived, E. coli 100 (Escherechia coli [1]): 100%; percent animals which survived, S. pyogenes 50 (Streptococcus pyogenes): 20%; percent animals which survived, S. pyogenes 200 (Streptococcus pyogenes): 70%
CCN(CC)CCCOC(=O)c1c(C)[n+]([O-])c2ccccc2[n+]1[O-].Cl [H (CH2)3 N(C2 H5)2.HCl, 3-Methyl-2-quinoxalinecarboxylic acid, 3-(diethylamino)propyl ester, 1,4-dioxide hydrochloride]	–	–	200	12.5	–
CCNC(=O)OCCOC(=O)c1c(C)[n+]([O-])c2ccccc2[n+]1[O-] [drawing 82]	–	–	25 (≈ 74.6 µM)	> 200	–
Cc1c(C(=O)OCCOC(=O)CCC(=O)O)[n+]([O-])c2ccccc2[n+]1[O-] [drawing 83]	–	–	200 (≈ 549 µM)	> 200	–
CCCCCCC(=O)OCCOC(=O)c1c(C)[n+]([O-])c2ccccc2[n+]1[O-]	100	10	–	–	–
CC(=O)OCCOC(=O)c1c(C)[n+]([O-])c2ccccc2[n+]1[O-] [drawing 80]	–	–	12.5 (≈ 40.8 µM)	50 (≈ 163 µM)	–
